Data: patent EP0572122A2, “C-terminal modified osteogenic growth polypeptides” (YISSUM RESEARCH AND DEVELOPMENT COMPANY OF THE HEBREW …, priority 1992, dated 1993)

Tested on: anti-OGP IgG
Assay: ELISA reactivity of peptides with the anti-OGP IgG preparation
Type: binding, rabbits
Details: polyclonal rabbit anti-OGP IgG fraction
Description: The wells were washed with 200 µl PBS (x3). Blocking of unreacted sites on the plastic well bottom was carried out by incubation of 1% gelatine in PBS at 37°C for 1 h. Rinsing with PBS (3 x 200 µl) was followed by 2 h incubation with the anti-OGP IgG preparation (diluted 1:300 with reference to the original rabbit anti-serum) at room temperature. This was followed by rinsing with (i) 3% BSA in PBS (1 x 200 µl); (ii) 0.02% Tween 20 in PBS (1 x 200 µl); and (iii) PBS (3 x 200 µl). The wells were then incubated with 100 µl of 1:1000 dilution in PBS of goat alkaline phosphatase conjugated anti-rabbit IgG for 2 h at room temperature. Rinsing with (i) 0.02% Tween in PBS (1 x 200 µl); (ii) PBS (2 x 200 µl); (iii) bidistilled water (3 x 200 µl) preceded a 20 min incubation at room temperature with alkaline phosphatase buffer solution: p-nitrophenyl phosphate 1 mg/ml in substrate buffer (diethanolamine buffer pH 9.6). Light absorbance at 450 nm was then recorded using an ELISA reader.

## parathyroid hormone (PTH) (1-34) [PTH (1-34)]
  binding to / reaction with anti-OGP IgG in ELISA: failed to react
